The results in this text go back to ChEMBL document CHEMBL5303304, “EUbOPEN Chemogenomics Library - IncuCyte” (2023).

Where “and” joins values, the source holds several entries; their conditions need not be identical. Equal values may be shown once.

What all share (type): toxicity, cell-based
One data set deals with HEK-293T. In words: Incucyte cell viability with HEK293T. The conditions noted are these: human, 10 µM, compound concentration 10 uM.
A further data set concerns Fibroblast. Briefly: Incucyte cell viability with human fibroblast. The conditions noted are these: 10 µM, compound concentration 10 uM.
A further data set deals with U2OS. Briefly: Incucyte cell viability with U2OS. The conditions noted are these: human, 10 µM, compound concentration 10 uM.
Also: unitless GR value; below 1 slowed growth and below 0 cell loss.

As for `COCc1c(-c2cc3cc(C)cc(OC)c3s2)c2c(N)ncnn2c1CN[C@@H]1CCNC1=O`, the “Growth Rate” value in the data set on HEK-293T (0 h, replicate number 1) is -0.25; with HEK-293T (0 h, replicate number 2), -0.02; with HEK-293T (6 h, replicate number 1), 0.47; in the data set with HEK-293T (6 h, replicate number 2), 0.58; in the data set with HEK-293T (12 h, replicate number 1), 0.43; in the data set on HEK-293T (12 h, replicate number 2), 0.2. The “Growth Rate” value in the data set on HEK-293T (18 h, replicate number 1) is recorded as 0.61; in the data set with HEK-293T (18 h, replicate number 2), 0.49; in the data set on HEK-293T (24 h, replicate number 1), 0.62; with HEK-293T (24 h, replicate number 2) it was 0.65; with Fibroblast (0 h, replicate number 1), -1; in the data set with Fibroblast (6 h, replicate number 1) it was 0.36. Further, the “Growth Rate” value in the data set on Fibroblast (12 h, replicate number 1) turned out to be 0.6; with Fibroblast (18 h, replicate number 1), 0.59; in the data set on Fibroblast (18 h, replicate number 2) it was 0.77; with Fibroblast (24 h, replicate number 1), 0.46; in the data set with Fibroblast (24 h, replicate number 2), 0.98; in the data set with U2OS (0 h, replicate number 2) it was 0.73. Moreover, the “Growth Rate” value stood at 0.62 with U2OS (6 h, replicate number 1); 0.45 in the data set on U2OS (12 h, replicate number 1); 0.77 in the data set on U2OS (12 h, replicate number 2); 0.84 in the data set on U2OS (18 h, replicate number 1); 0.85 in the data set on U2OS (18 h, replicate number 2); 0.44 with U2OS (24 h, replicate number 1). Besides, the “Growth Rate” value in the data set on U2OS (24 h, replicate number 2) is listed as 0.9.

As for `N#Cc1ccc(C#CC[C@@H](C#N)NC(=O)[C@H]2CCCCN2)cc1F.O=C(O)C(F)(F)F`, the “Growth Rate” value in the data set with HEK-293T (0 h, replicate number 2) is recorded as -0.1; in the data set on Fibroblast (0 h, replicate number 1), -1; with Fibroblast (6 h, replicate number 1) it was 0.94; in the data set with Fibroblast (18 h, replicate number 1) it was 0.86; in the data set on Fibroblast (24 h, replicate number 1), 0.92; in the data set on U2OS (0 h, replicate number 2), 0.12. For the same compound, the “Growth Rate” value came out at 0.86 in the data set with U2OS (6 h, replicate number 1); 0.95 in the data set on U2OS (6 h, replicate number 2); 0.78 in the data set with U2OS (12 h, replicate number 2); 0.73 with U2OS (18 h, replicate number 2); 0.73 in the data set on U2OS (24 h, replicate number 2).

On to `COc1cc2nc(-c3cc(F)ccc3O)nc(N[C@@H]3CNC[C@H]3C(C)(C)O)c2cc1OC.Cl.Cl`, for which the “Growth Rate” value in the data set with HEK-293T (6 h, replicate number 1) is -0.41 and -0.9; in the data set with HEK-293T (6 h, replicate number 2) it was -0.53; in the data set with HEK-293T (12 h, replicate number 1), -0.39 and -0.88; in the data set on HEK-293T (12 h, replicate number 2) it was -0.5 and -0.73; in the data set on HEK-293T (18 h, replicate number 1), -0.28 and -0.69; with HEK-293T (18 h, replicate number 2) it was -0.42 and -0.53. In addition, the “Growth Rate” value in the data set on HEK-293T (24 h, replicate number 1) was -0.23 and -0.61; with HEK-293T (24 h, replicate number 2), -0.33 and -0.39; in the data set on Fibroblast (0 h, replicate number 1) it was -1; in the data set on Fibroblast (0 h, replicate number 2), 0.21; in the data set on Fibroblast (6 h, replicate number 1), -0.98; with Fibroblast (6 h, replicate number 2), -1. The “Growth Rate” value with Fibroblast (18 h, replicate number 1) was 0.18; in the data set with Fibroblast (24 h, replicate number 1), 0.06; in the data set with U2OS (0 h, replicate number 1), -0.66; in the data set on U2OS (12 h, replicate number 1), -0.39 and -0.54; in the data set with U2OS (12 h, replicate number 2) it was -0.46 and -0.33; in the data set with U2OS (18 h, replicate number 1), -0.4 and -0.47. Moreover, the “Growth Rate” value with U2OS (18 h, replicate number 2) is -0.37 and -0.32; with U2OS (24 h, replicate number 1), -0.35 and -0.37; with U2OS (24 h, replicate number 2), -0.34 and -0.27.

`O=C1NCCSc2c1sc1ccc(O)cc21`: the “Growth Rate” value in the data set with HEK-293T (0 h, replicate number 1) is reported as 0.04; in the data set on HEK-293T (0 h, replicate number 2), -0.36; in the data set on HEK-293T (6 h, replicate number 1), -0.48; in the data set with HEK-293T (6 h, replicate number 2), -0.51; in the data set with HEK-293T (12 h, replicate number 1), -0.4; in the data set with HEK-293T (12 h, replicate number 2) it was -0.26. Further, the “Growth Rate” value is on record as -0.14 in the data set on HEK-293T (18 h, replicate number 1); -0.06 with HEK-293T (18 h, replicate number 2); 0.15 with HEK-293T (24 h, replicate number 1); 0.12 in the data set with HEK-293T (24 h, replicate number 2); -0.69 in the data set on Fibroblast (6 h, replicate number 1); -1 in the data set on Fibroblast (12 h, replicate number 1). For the same compound, the “Growth Rate” value is 0 in the data set with U2OS (0 h, replicate number 1); -0.99 in the data set with U2OS (0 h, replicate number 2); 0.56 in the data set with U2OS (12 h, replicate number 1); 0.36 in the data set with U2OS (12 h, replicate number 2); 0.33 in the data set on U2OS (18 h, replicate number 1); 0.31 with U2OS (18 h, replicate number 2). Also, the “Growth Rate” value is on record as 0.37 with U2OS (24 h, replicate number 1) and 0.18 in the data set on U2OS (24 h, replicate number 2).

With `COC(=O)c1cc2c(cn1)[nH]c1ccccc12` [BETA-CCM], the “Growth Rate” value in the data set on HEK-293T (6 h, replicate number 1) was found to be 0.67; with HEK-293T (12 h, replicate number 2), 0.64; in the data set with HEK-293T (18 h, replicate number 2), 0.78; in the data set on HEK-293T (24 h, replicate number 2), 0.86; with Fibroblast (0 h, replicate number 1) it was 0.3; in the data set with Fibroblast (6 h, replicate number 1), 0.4. The “Growth Rate” value is -0.82 in the data set with Fibroblast (6 h, replicate number 2); -1 in the data set with Fibroblast (12 h, replicate number 1); 0.65 in the data set with Fibroblast (12 h, replicate number 2); 0.98 in the data set with Fibroblast (18 h, replicate number 2); 0.9 in the data set with Fibroblast (24 h, replicate number 2); -0.72 in the data set with U2OS (0 h, replicate number 2). In addition, the “Growth Rate” value in the data set on U2OS (6 h, replicate number 2) was determined as 0.6; in the data set with U2OS (12 h, replicate number 1), 0.72; with U2OS (12 h, replicate number 2) it was 0.95; in the data set on U2OS (18 h, replicate number 1) it was 0.85; in the data set on U2OS (18 h, replicate number 2), 1; with U2OS (24 h, replicate number 1), 0.98. Also, the “Growth Rate” value in the data set with U2OS (24 h, replicate number 2) is 0.97.
